Measurements as given in ChEMBL document CHEMBL5214886, “An appraisal of anti-mycobacterial activity with structure-activity relationship of piperazine and its analogues: A review” (Eur J Med Chem, 2021).
pIC50: −log10 of the molar value. ≈ marks a conversion by molar mass, not a printed value. Where “and” joins values, the source holds several entries; their conditions need not be identical. Equal values may be shown once.

Assays:
[1] = tested on: Mycobacterium tuberculosis; test: Antimycobacterial activity against Mycobacterium tuberculosis H37Rv assessed as reduction in bacterial growth by MABA analysis; type: functional
[2] = tested on: Mycobacterium tuberculosis; test: Antimycobacterial activity against Mycobacterium tuberculosis H37Rv assessed as reduction in bacterial growth; type: functional
[3] = tested on: Mycobacterium tuberculosis; test: Antimycobacterial activity against Mycobacterium tuberculosis H37Ra assessed as reduction in bacterial growth; type: functional
[4] = tested on: Mycobacterium tuberculosis; test: Antimycobacterial activity against Mycobacterium tuberculosis H37Rv assessed as reduction in bacterial growth incubated for 21 days by broth dilution assay; type: functional; settings: 504 h, time 21 day
[5] = tested on: Mycobacterium tuberculosis; test: Antimycobacterial activity against Mycobacterium tuberculosis H37Rv ATCC 27294 assessed as reduction in bacterial growth incubated for 72 hrs by two-fold dilution method; type: functional
[6] = tested on: Mycobacterium tuberculosis; test: Antimycobacterial activity against Mycobacterium tuberculosis H37Rv ATCC 27294 assessed as reduction in bacterial growth incubated for 7 days by MABA analysis; type: functional; settings: H37Rv ATCC 27294, 168 h, time 7 day
[7] = tested on: Mycobacterium tuberculosis; test: Antimycobacterial activity against Mycobacterium tuberculosis H37Rv assessed as reduction in bacterial growth by BACTEC MGIT method; type: functional
[8] = tested on: Mycobacterium tuberculosis; test: Antimycobacterial activity against Mycobacterium tuberculosis H37Rv assessed as reduction in bacterial growth by agar dilution method; type: functional
[9] = target: T1, Enoyl-[acyl-carrier-protein] reductase [NADH] (Mycobacterium tuberculosis, UniProt P9WGR1); test: Inhibition of Mycobacterium tuberculosis InhA using octenoyl-CoA as substrate in presence of NADH and measured for 10 mins by colorimetric assay
T1 sequence (P9WGR1 whole entry): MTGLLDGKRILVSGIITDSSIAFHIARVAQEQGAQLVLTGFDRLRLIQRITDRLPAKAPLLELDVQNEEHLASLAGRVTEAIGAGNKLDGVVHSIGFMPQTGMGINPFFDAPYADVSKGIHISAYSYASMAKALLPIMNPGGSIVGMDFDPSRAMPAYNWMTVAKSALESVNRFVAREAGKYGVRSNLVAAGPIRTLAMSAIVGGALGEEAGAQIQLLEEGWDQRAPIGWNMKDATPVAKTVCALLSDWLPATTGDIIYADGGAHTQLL

[10] = tested on: Mycobacterium tuberculosis; test: Antimycobacterial activity against Mycobacterium tuberculosis H37Rv assessed as reduction in bacterial growth and measured after 7 days by resazurin assay; type: functional, organism-based; settings: 168 h
[11] = tested on: Mycobacterium tuberculosis; test: Antimycobacterial activity against Mycobacterium tuberculosis H37Rv assessed as reduction in bacterial growth by MABA assay; type: functional
[12] = tested on: Mycobacterium tuberculosis; test: Antimycobacterial activity against Mycobacterium tuberculosis H37Rv ATCC 27294 assessed as reduction in bacterial growth by MABA analysis; type: functional
[13] = tested on: Mycobacterium tuberculosis; test: Antimycobacterial activity against Mycobacterium tuberculosis H37Rv ATCC 27294 assessed as reduction in bacterial growth and measured after 21 days by radiometric BACTEC method; type: functional; settings: H37Rv ATCC 27294, 504 h, time 21 day
[14] = tested on: Mycobacterium tuberculosis; test: Antimycobacterial activity against Mycobacterium tuberculosis H37Rv assessed as reduction in bacterial growth incubated for 6 days by resazurin reduction microplate assay; type: functional; settings: 144 h, time 6 day
[15] = Aqueous solubility of the compound incubated for 3 days by shake flask method; type: physicochemical; settings: water; time 3 day
[16] = tested on: Mycobacterium tuberculosis; test: Antimycobacterial activity against Mycobacterium tuberculosis My 331/88 (H37Rv) assessed as reduction in bacterial growth incubated for 14 days by microdilution method; type: functional; settings: 336 h, time 14 day
[17] = tested on: Mycobacterium tuberculosis; test: Antimycobacterial activity against Mycobacterium tuberculosis H37Rv assessed as reduction in bacterial colonies by colony counting method; type: functional
[18] = tested on: Mycobacterium tuberculosis; test: Antimycobacterial activity against Mycobacterium tuberculosis H37Rv ATCC 27294 assessed as reduction in bacterial growth; type: functional
[19] = tested on: Mycobacterium tuberculosis; test: Antimycobacterial activity against Mycobacterium tuberculosis H37Rv assessed as reduction in bacterial growth by REMA analysis; type: functional
[20] = tested on: Mycobacterium tuberculosis; test: Antimycobacterial activity against Mycobacterium tuberculosis H37Rv assessed as reduction in bacterial growth incubated for 15 days by turbidometric method; type: functional; settings: 360 h, time 15 day
[21] = tested on: Mycobacterium tuberculosis; test: Antimycobacterial activity against Mycobacterium tuberculosis H37Rv ATCC 27294 assessed as reduction in bacterial growth by fluorescence based MABA method; type: functional
[22] = tested on: Mycobacterium tuberculosis; test: Antimycobacterial activity against Mycobacterium tuberculosis kurono assessed as reduction in bacterial colonies incubated for 14 days by colony counting method; type: functional; settings: 336 h, time 14 day

COc1ccc(N2CCN(c3ccc(CNC(=O)c4ccc([N+](=O)[O-])o4)cc3)CC2)cc1
MIC [1]: < 0.04 µM

O=C(NCc1ccc(N2CCN(Cc3ccccc3)CC2)cc1)c1ccc([N+](=O)[O-])o1
MIC [2]: 0.014 µM (≈ 0.00589 µg/mL)
MIC [3]: 0.014 µM (≈ 0.00589 µg/mL)

CCn1cc(C(=O)O)c(=O)c2cc(F)c(N3CCN(c4nnc(SCC(=O)c5ccc([N+](=O)[O-])cc5)s4)CC3)cc21
MIC [4]: 1.68 µM (≈ 1.01 µg/mL)

COc1c(N2CCNC(C)C2)c(F)cc2c(=O)c(C(=O)O)cn(C3CC3)c12 (stereo not drawn) [GATIFLOXACIN]
MIC [5]: 0.66 µM (≈ 0.248 µg/mL)

O=C(c1ccncc1)N1CCN(c2nc3ccccc3c3ccccc23)CC1
MIC [6]: 4.23 µM (≈ 1.56 µg/mL)

N#Cc1ccc(Nc2nc(Oc3ncnc4ccccc34)nc(N3CCN(c4cccc(Cl)c4Cl)CC3)n2)cc1C(F)(F)F
MIC [7]: > 9.79 µM
MIC [8]: 9.79 µM (≈ 6.25 µg/mL)

O=C(c1ccc2[nH]ccc2c1)N1CCN(C2c3ccccc3-c3ccc([N+](=O)[O-])cc32)CC1 (stereo not drawn)
pIC50 [9]: 6.57

Cc1ccc2nc(-c3ccccc3)c(C(c3ccccc3)N(CC(=O)N3CCN(c4ccccn4)CC3)Cc3ccccc3)cc2c1 (stereo not drawn)
pIC50 [10]: 5.40

NC(=O)c1cnccn1 [PYRAZINAMIDE]
MIC [7]: 50.8 µM (≈ 6.25 µg/mL)
MIC [8]: 50.8 µM (≈ 6.25 µg/mL)

O=C(CSc1nnc(N2CCN(c3cc4c(cc3F)c(=O)c(C(=O)O)cn4C3CC3)CC2)s1)c1ccc(Cl)cc1
MIC [4]: 1.67 µM (≈ 1 µg/mL)

Cc1cn2c(C(=O)NCc3ccc(N4CCN(c5ccc(C(F)(F)F)cn5)CC4)c(F)c3)cnc2s1
MIC [6]: 0.004 µM (≈ 0.00207 µg/mL)

CCON=C1CCC(CN2CCN(c3nc(=O)c4cc(C(F)(F)F)cc([N+](=O)[O-])c4s3)CC2)CC1 (stereo not drawn)
MIC [1]: < 0.03 µM

CCOC(=O)C1=NOC(c2ccc(N3CCN(Cc4ccccc4)CC3)cc2)C1 (stereo not drawn)
MIC90 [4]: 3.96 µM (≈ 1.56 µg/mL)

CCn1cc(C(=O)O)c(=O)c2cc(F)c(N3CCN(CN4C(=O)/C(=N\c5ncc(Cc6cc(OC)c(OC)c(OC)c6)c(N)n5)c5cc(Cl)ccc54)C(C)C3)c(F)c21 (stereo not drawn)
MIC [11]: 1.91 µM (≈ 1.56 µg/mL)
MIC [12]: 1.91 µM (≈ 1.56 µg/mL)

CCOC(=O)N1CCN(CC(=O)C2C(c3ccc(Cl)cc3)C(C)C(=O)C(C)C2c2ccc(Cl)cc2)CC1 (stereo not drawn)
MIC [13]: 29.3 µM (≈ 16 µg/mL)

CON=C1CCC(CN2CCN(c3nc(=O)c4cc(C(F)(F)F)cc([N+](=O)[O-])c4s3)CC2)CC1 (stereo not drawn)
MIC [1]: < 0.03 µM

O=c1nc(N2CCN(S(=O)(=O)C3CC3)CC2)sc2c([N+](=O)[O-])cc(C(F)(F)F)cc12
MIC [14]: 0.0064 µM (≈ 0.00297 µg/mL)
solubility thermodynamic at 72 h [15]: 15.9 µM (≈ 7.39 µg/mL)

O=C(NCc1ccc(N2CCN(c3ccc(F)cc3)CC2)cc1)c1ccc([N+](=O)[O-])o1
MIC [1]: < 0.04 µM

CO[C@H]1/C=C/O[C@@]2(C)Oc3c(C)c(O)c4c(O)c(c(/C=N/N5CCN(C)CC5)c(O)c4c3C2=O)NC(=O)/C(C)=C\C=C\[C@H](C)[C@H](O)[C@@H](C)[C@@H](O)[C@@H](C)[C@H](OC(C)=O)[C@@H]1C [RIFAMPIN]
MIC [1]: > 48.6 µM

CCOC(=O)N1CCN(CC(=O)C2C(c3cccc(F)c3)C(C)C(=O)C(C)C2c2cccc(F)c2)CC1 (stereo not drawn)
MIC [13]: 31.2 µM (≈ 16 µg/mL)

O=C(CCCc1cc2ccccc2[nH]1)N1CCN(c2nc3ccccc3c3ccccc23)CC1
MIC [6]: 3.48 µM (≈ 1.56 µg/mL)

CCOC(=O)N1CCN(CC(=O)C2C(c3ccccc3)CC(=O)C(CC)C2c2ccccc2)CC1 (stereo not drawn)
MIC [13]: 33.6 µM (≈ 16 µg/mL)

CCOC(=O)N1CCN(CC(=O)C2C(c3ccc(OC)cc3)C(C)C(=O)C(C)C2c2ccc(OC)cc2)CC1 (stereo not drawn)
MIC [13]: 29.8 µM (≈ 16 µg/mL)

CC1COc2c(N3CCN(C)CC3)c(F)cc3c(=O)c(C(=O)O)cn1c23 (stereo not drawn) [OFLOXACIN]
MIC [16]: 1 µM (≈ 0.361 µg/mL)

CCOC(=O)N1CCN(CC(=O)C2C(c3ccccc3)C(C)C(=O)C(C)C2c2ccccc2)CC1 (stereo not drawn)
MIC [13]: 33.6 µM (≈ 16 µg/mL)

O=C(NCc1ccc(N2CCN(c3ccc(F)cc3F)CC2)cc1)c1ccc([N+](=O)[O-])o1
MIC [1]: < 0.04 µM

CC(C)(C)c1ccc(S(=O)(=O)N2CCN(c3nc4ccccc4c4ccccc34)CC2)cc1
MIC [6]: 3.39 µM (≈ 1.56 µg/mL)

NNC(=O)c1ccncc1 [ISONIAZID]
MIC [1]: 0.06 µM (≈ 0.00823 µg/mL)
MIC [4]: 10.9 µM (≈ 1.5 µg/mL)

CCCCCCCCCN1CCN(c2c(F)cc3c(c2OC)C(C2CC2)=CC(C(=O)O)C3=O)CC1 (stereo not drawn)
MIC [17]: 0.25 µM (≈ 0.122 µg/mL)

COc1ccc2cc(C(=O)CN3CCN(c4c(F)cc5c(=O)c(C(=O)O)cn(C6CC6)c5c4OC)CC3)c(=O)oc2c1
MIC [5]: 0.43 µM (≈ 0.248 µg/mL)

O=C(CSc1nnc(N2CCN(c3cc4c(cc3F)c(=O)c(C(=O)O)cn4C3CC3)CC2)s1)c1ccc([N+](=O)[O-])cc1
MIC [4]: 0.82 µM (≈ 0.501 µg/mL)

COc1cc(N2CCN(c3ccc(N4C[C@H](CNC(C)=O)OC4=O)cc3F)CC2)nc2nccn12
MIC [18]: 1.03 µM (≈ 0.498 µg/mL)

CC(=O)NC[C@H]1CN(c2ccc(N3CCN(c4ccc5nccn5n4)CC3)c(F)c2)C(=O)O1
MIC [18]: 1.1 µM (≈ 0.499 µg/mL)

CCOC(=O)c1ccc(N2CCN(c3nccc(N4CCOc5nc([N+](=O)[O-])cn5C4)n3)CC2)cc1
MIC [11]: > 100 µM

O=c1nc(N2CCN(CC3CCCCC3)CC2)sc2c([N+](=O)[O-])cc(C(F)(F)F)cc12 [MACOZINONE]
MIC [19]: < 0.42 µM
MIC [14]: 0.0004 µM (≈ 0.000183 µg/mL)

Cc1cccc(-c2nc(CN3CCN(c4ccnc5cc(-c6cccnc6)ccc45)CC3)no2)c1C
MIC [20]: 0.52 µM (≈ 0.248 µg/mL)

CCCCOC(=O)Nc1ccc(C(O)CN2CCN(c3ccccc3F)CC2)cc1 (stereo not drawn)
MIC [16]: 8 µM (≈ 3.32 µg/mL)

CC1COc2c(N3CCNCC3)c(F)cc3c(=O)c(C(=O)O)cn1c23 (stereo not drawn) [DESMETHYL-OFLOXACIN]
MIC [21]: 11.7 µM and 4.55 µM

COC(=O)COc1ccc2ccccc2c1CN1CCN(C/C=C/c2ccccc2)CC1
MIC [2]: 9.3 µM (≈ 4 µg/mL)

CC[C@@H](CO)NCCN[C@@H](CC)CO [ETHAMBUTOL]
MIC [16]: 1.1 µM (≈ 0.225 µg/mL)

CC(C)(c1ccc(OCc2ccc(C(F)(F)F)cc2)cc1)N1CCN(c2ccc(OC[C@H]3CCn4cc([N+](=O)[O-])nc4O3)cc2)CC1
MIC [22]: 0.001 µM (≈ 0.000652 µg/mL)
